Laboratory results from US8242274B2, “Triazolopyridine kinase inhibitors useful for the treatment of degenerative and inflammatory diseases” (Galapagos NV, priority 2008, dated 2012).

Experiments:
[1] = biological target: T1, Recombinant human JAK2 catalytic domain (Homo sapiens, UniProt O60674); experiment: JAK2 inhibition assay; assay type: biochemical; conditions: semi-quantitative score
T1 construct: Recombinant human JAK2 catalytic domain (amino acids 808-1132; catalog number PV4210); purchased Invitrogen PV4210
T1 sequence (O60674 808-1132): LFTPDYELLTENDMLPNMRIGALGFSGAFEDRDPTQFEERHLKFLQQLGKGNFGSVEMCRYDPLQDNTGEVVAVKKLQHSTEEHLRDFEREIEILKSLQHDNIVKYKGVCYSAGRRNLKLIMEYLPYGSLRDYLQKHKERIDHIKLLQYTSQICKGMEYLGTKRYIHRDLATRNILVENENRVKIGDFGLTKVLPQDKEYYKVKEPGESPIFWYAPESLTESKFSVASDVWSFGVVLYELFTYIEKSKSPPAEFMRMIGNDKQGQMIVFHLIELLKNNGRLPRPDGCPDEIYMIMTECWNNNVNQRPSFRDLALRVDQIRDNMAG
Procedure: Recombinant human JAK2 catalytic domain (amino acids 808-1132; catalog number PV4210) was purchased from Invitrogen. 0.025 mU of JAK2 was incubated with 2.5 μg polyGT substrate (Sigma catalog number P0275) in kinase reaction buffer (5 mM MOPS pH 7.5, 9 mM MgAc, 0.3 mM EDTA, 0.06% Brij and 0.6 mM DTT, 1 μM non-radioactive ATP, 0.25 μCi 33P-gamma-ATP (GE Healthcare, catalog number AH9968) final concentrations) with or without 5 μL containing test compound or vehicle (DMSO, 1% final concentration), in a total volume of 25 μL, in a polypropylene 96-well plate (Greiner, V-bottom). After 90 min at 30° C., reactions were stopped by adding of 25 μL/well of 150 mM phosphoric acid. All of the terminated kinase reaction was transferred to prewashed (75 mM phosphoric acid) 96 well filter plates (Perkin Elmer catalog number 6005177) using a cell harvester (Perkin Elmer). Plates were washed 6 times with 300 μL per well of a 75 mM phosphoric acid solution and the bottom of the plates was sealed. 40 μL/well of Microscint-20 was added, the top of the plates was sealed and readout was performed using the Topcount (Perkin Elmer). Kinase activity was calculated by subtracting counts per minute (cpm) obtained in the presence of a positive control inhibitor (10 μM staurosporine) from cpm obtained in the presence of vehicle. The ability of a test compound to inhibit this activity was determined as: Percentage inhibition=((cpm determined for sample with test compound present−cpm determined for sample with positive control inhibitor) divided by (cpm determined in the presence of vehicle−cpm determined for sample with positive control inhibitor))*100%.
(§1) Dose dilution series were prepared for the compounds enabling the testing of dose-response effects in the JAK2 assay and the calculation of the IC50 for each compound. Each compound was routinely tested at concentration of 20 μM followed by a 1/3 serial dilution, 8 points (20 μM-6.67 μM-2.22 μM-740 nM-247 nM-82 nM-27 nM-9 nM) in a final concentration of 1% DMSO.

[2] = biological target: T2, Recombinant human TYK2 catalytic domain (Homo sapiens, UniProt P29597); experiment: TYK2 inhibition assay; assay type: biochemical; conditions: semi-quantitative score
T2 construct: Recombinant human TYK2 catalytic domain (amino acids 871-1187; catalog number 08-147); purchased Carna biosciences 08-147
T2 sequence (P29597 871-1187): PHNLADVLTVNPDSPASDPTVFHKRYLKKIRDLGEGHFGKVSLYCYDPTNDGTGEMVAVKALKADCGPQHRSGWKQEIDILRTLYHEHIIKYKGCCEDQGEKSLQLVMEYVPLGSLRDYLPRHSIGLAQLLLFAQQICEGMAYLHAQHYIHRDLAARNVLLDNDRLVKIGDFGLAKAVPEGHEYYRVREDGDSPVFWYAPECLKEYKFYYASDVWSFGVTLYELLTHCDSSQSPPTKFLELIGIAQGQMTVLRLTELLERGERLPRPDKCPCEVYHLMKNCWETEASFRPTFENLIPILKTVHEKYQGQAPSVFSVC
Procedure: Recombinant human TYK2 catalytic domain (amino acids 871-1187; catalog number 08-147) was purchased from Carna biosciences. 5 ng of TYK2 was incubated with 12.5 μg polyGT substrate (Sigma catalog number P0275) in kinase reaction buffer (25 mM Hepes pH 7.5, 100 mM NaCl, 0.2 mM Na3VO4, 0.1% NP-40, 0.1 μM non-radioactive ATP, 0.125 μCi 33P-gamma-ATP (GE Healthcare, catalog number AH9968) final concentrations) with or without 5 μL containing test compound or vehicle (DMSO, 1% final concentration), in a total volume of 25 μL, in a polypropylene 96-well plate (Greiner, V-bottom). After 90 min at 30° C., reactions were stopped by adding of 25 μL/well of 150 mM phosphoric acid. All of the terminated kinase reaction was transferred to prewashed (75 mM phosphoric acid) 96 well filter plates (Perkin Elmer catalog number 6005177) using a cell harvester (Perkin Elmer). Plates were washed 6 times with 300 μL per well of a 75 mM phosphoric acid solution and the bottom of the plates was sealed. 40 μL/well of Microscint-20 was added, the top of the plates was sealed and readout was performed using the Topcount (Perkin Elmer). Kinase activity was calculated by subtracting counts per minute (cpm) obtained in the presence of a positive control inhibitor (10 μM staurosporine) from cpm obtained in the presence of vehicle. The ability of a test compound to inhibit this activity was determined as: Percentage inhibition=((cpm determined for sample with test compound present−cpm determined for sample with positive control inhibitor) divided by (cpm determined in the presence of vehicle−cpm determined for sample with positive control inhibitor))*100%.
as §1, with “TYK2” for “JAK2”

[3] = Caco2 permeability, bi-directional; assay type: in vitro ADME; conditions: human; for Papp A→B at 1 h, 10 μM: Caco-2, pH 7.4
Procedure: Bi-directional Caco-2 assays were performed as described below. Caco-2 cells were obtained from European Collection of Cell Cultures (ECACC, cat 86010202) and used after a 21 day cell culture in 24-well Transwell plates (Fisher TKT-545-020B).
2×10^5 cells/well were seeded in plating medium consisting of DMEM+GlutaMAXI+1% NEAA+10% FBS (FetalClone II)+1% Pen/Strep. The medium was changed every 2-3 days.
Test and reference compounds (propranolol and rhodamine 123 or vinblastine, all purchased from Sigma) were prepared in Hanks' Balanced Salt Solution containing 25 mM HEPES (pH 7.4) and added to either the apical (125 μL) or basolateral (600 μL) chambers of the Transwell plate assembly at a concentration of 10 μM with a final DMSO concentration of 0.25%.
50 μM Lucifer Yellow (Sigma) was added to the donor buffer in all wells to assess integrity of the cell layers by monitoring Lucifer Yellow permeation. As Lucifer Yellow (LY) cannot freely permeate lipophilic barriers, a high degree of LY transport indicates poor integrity of the cell layer.
After a 1 hour incubation at 37° C. while shaking at an orbital shaker at 150 rpm, 70 μL aliquots were taken from both apical (A) and basal (B) chambers and added to 100 μLl 50:50 acetonitrile:water solution containing analytical internal standard (0.5 μM carbamazepine) in a 96 well plate.
Lucifer yellow was measured with a Spectramax Gemini XS (Ex 426 nm and Em 538 nm) in a clean 96 well plate containing 150 μL of liquid from basolateral and apical side.
Concentrations of compound in the samples were measured by high performance liquid-chromatography/mass spectroscopy (LC-MS/MS).
The Efflux ratios, as an indication of active efflux from the apical cell surface, were calculated using the ratio of PappB>A/PappA>B.

Row | Compound | IC50 [1] [µM] | IC50 [2] [µM] | Papp A→B at 1 h, 10 μM [3] [nm/s] | efflux ratio at 1 h, 10 μM ([3]; Caco-2, pH 7.4, PappB>A/PappA>B)
1 | O=C(Nc1nc2cccc(-c3ccc(OCc4ccc(C(F)(F)F)nc4)cc3)n2n1)C1CC1 [Compound 78, N-(5-(4-((6-(trifluoromethyl)pyridin-3-yl)methoxy)phenyl)-[1,2,4]triazolo[1,5-a]pyridin-2-yl)cyclopropanecarboxamide] | 0.001 to 0.1 |  | 20 | 
2 | O=C(Nc1nc2cccc(-c3ccc(OCc4ccccn4)cc3)n2n1)C1CC1 [Compound 37, N-(5-(4-(pyridin-2-ylmethoxy)phenyl)-[1,2,4]triazolo[1,5-a]pyridin-2-yl)cyclopropanecarboxamide] | 0.001 to 0.1 | 0.501 to 1 | 230 | 0.85
3 | O=C(Nc1nc2cccc(-c3ccc(OCc4cccnc4)cc3)n2n1)C1CC1 [Compound 36, N-(5-(4-(pyridin-3-ylmethoxy)phenyl)-[1,2,4]triazolo[1,5-a]pyridin-2-yl)cyclopropanecarboxamide] | 0.001 to 0.1 | 0.101 to 0.5 | 366 | 
4 | N#Cc1ccc(COc2ccc(-c3cccc4nc(NC(=O)C5CC5)nn34)cc2)cn1 [Compound 176, N-(5-(4-((6-cyanopyridin-3-yl)methoxy)phenyl)-[1,2,4]triazolo[1,5-a]pyridin-2-yl)cyclopropanecarboxamide] | 0.001 to 0.1 | 0.001 to 0.1 | 106 | 

Second part, led by results:

Row | IC50 [1] [µM] | IC50 [2] [µM] | Papp A→B at 1 h, 10 μM [3] [nm/s] | Compound | efflux ratio at 1 h, 10 μM ([3]; Caco-2, pH 7.4, PappB>A/PappA>B)
5 | 0.001 to 0.1 |  |  | O=C(Nc1nc2cccc(-c3ccc(OCc4ccccc4)nc3)n2n1)C1CC1 [Compound 57, Cyclopropanecarboxylic acid [5-(6-benzyloxy-pyridin-3-yl)-[1,2,4]triazolo[1,5-a]pyridin-2-yl]-amide] | 
6 | 0.001 to 0.1 |  |  | O=C(Nc1nc2cccc(-c3ccc(OCc4ccccc4)cc3)n2n1)C1CC1 [Compound 12, N-(5-(4-(benzyloxy)phenyl)-[1,2,4]triazolo[1,5-a]pyridin-2-yl)cyclopropanecarboxamide] | 
7 |  | > 1 |  | CC(=O)Nc1ccc(COc2ccc(-c3cccc4nc(NC(=O)C5CC5)nn34)cc2)cc1 [Compound 92, N-(5-(4-(4-acetamidobenzyloxy)phenyl)-[1,2,4]triazolo[1,5-a]pyridin-2-yl)cyclopropanecarboxamide] | 
8 | 0.001 to 0.1 | > 1 | 149 | O=C(Nc1nc2cccc(-c3ccc(NCc4ccccc4)cc3)n2n1)C1CC1 [Compound 72, N-(5-(4-(benzylamino)phenyl)-[1,2,4]triazolo[1,5-a]pyridin-2-yl)cyclopropanecarboxamide] | 
